Where two headings read alike, the source gives them in different places.
Tests used:
[1] = biological target: T1, σ1 site (Homo sapiens, UniProt Q99720); conditions: cited from earlier work
[2] = tested on: SARS-CoV-2; conditions: A549-ACE2; cited from earlier work
[3] = biological target: T1, σ1 site; conditions: read-out: Affinity for σ1 Site (Ki or KD values); cited from earlier work
[4] = tested on: severe COVID-19; experiment: AP-HP observational multicenter study: FIASMA medication use and intubation or death in severe COVID-19; assay type: in vivo, human; conditions: for Number of events/Number of patients N/N: each FIASMA class and molecule at baseline, severe COVID-19 (N = 2,846); for Number of events/Number of patients (%): each FIASMA class and molecule; for Univariate Cox regression in 1:2 ratio matched analytic samples HR: vs matched control groups
Method: COVID-19 was ascertained by a positive reverse-transcriptase-polymerase-chain-reaction (RT-PCR) test on nasopharyngeal or oropharyngeal swab specimens. Severe COVID-19 was defined as having at least one of the following criteria at hospital admission: respiratory rate >24 breaths/min or <12 breaths/min, resting peripheral capillary oxygen saturation in ambient air <90%, temperature >40° C., systolic blood pressure <100 mm Hg, or high lactate levels >2 mmol/L.^22
AP-HP Health Data Warehouse (‘Entrepôt de Données de Santé (EDS)’) contains all available clinical data on all inpatient visits for COVID-19 to 36 Greater Paris university hospitals. The data included patient demographic characteristics, vital signs, laboratory tests, and RT-PCR test results, medication administration data during the hospitalization for COVID-19, current diagnoses, discharge disposition, ventilator use data, and death certificates.
We obtained the following data for each patient at the time of the hospitalization: sex; age, which was categorized into four classes based on the OpenSAFELY study results^23 (i.e., 18-50, 51-70, 71-80, and 81+); hospital, which was categorized into four classes following the administrative clustering of AP-HP hospitals in Paris and its suburbs based on their geographical location (i.e., AP-HP Centre—Paris University, Henri Mondor University Hospitals and at home hospitalization; AP-HP Nord and Hôpitaux Universitaires Paris Seine-Saint-Denis; AP-HP Paris Saclay University; and AP-HP Sorbonne University); obesity, which was defined as having a body mass index higher than 30 kg/m^2 or an International Statistical Classification of Diseases and Related Health Problems (ICD-10) diagnosis code for obesity (E66.0, E66.1, E66.2, E66.8, and E66.9); self-reported current smoking status; and any medication prescribed according to compassionate use or as part of a clinical trial (e.g., hydroxychloroquine, azithromycin, remdesivir, tocilizumab, sarilumab, or dexamethasone). To take into account possible confounding by indication bias for FIASMA medications, we recorded whether patients had any current diagnosis, based on ICD-10 diagnosis codes recorded during the visit, of neoplasms and diseases of the blood (C00-D89); mental disorders (F01-F99); diseases of the nervous system (G00-G99); cardiovascular disorders (I00-I99); respiratory disorders (J00-J99); digestive disorders (K00-K95); dermatological disorders (L00-L99); diseases of the musculoskeletal system (M00-M99); diseases of the genitourinary system (N00-N99); endocrine disorders (E00-E89); and eye-ear-nose-throat disorders (H00-H95).
FIASMA medication use was defined as receiving at least one FIASMA medication within the first 24 hours of hospital admission. To minimize potential confounding effects of late prescription of FIASMA medications, patients who initiated an FIASMA medication more than 24 hours after hospital admission were excluded from the analyses. Patients who received at study baseline an antipsychotic or a benzodiazepine while being hospitalized in an intensive care unit, possibly as an aid to oral intubation, were also excluded.
Study baseline was defined as the date of hospital admission for COVID-19. The primary end point was the occurrence of intubation and/or death. For patients who died after intubation, the timing of the primary end point was defined as the time of intubation.
We calculated frequencies of all baseline characteristics described above in patients receiving or not receiving an FIASMA medication and compared them using standardized mean differences (SMD). SMD are useful to evaluate between-group differences in baseline characteristic variables independently of their unit of measurement (i.e., for both continuous and categorical variables^26-28). We considered SMD greater than 0.1 as reflecting significant differences, a threshold recommended for declaring imbalance.^27

[5] = tested on: pp-VSV-SARS-CoV-2 spike; conditions: cited from earlier work
[6] = tested on: SARS-CoV-2 infection; experiment: Retrospective cohort (BJC Healthcare): antidepressant exposure and ED or hospital encounter within 30 days; assay type: in vivo, human; conditions: for ED or hospital encounter within 30 days, %: share of exposed outpatients with an encounter after a positive SARS-CoV-2 test; for Unadjusted Odds Ratio, ED or hospital encounter within 30 days / Adjusted Odds Ratio, ED or hospital encounter within 30 days: vs No Antidepressant (Ref); for Unadjusted Odds Ratio, ED or hospital encounter within 30 days: logistic regression; for Adjusted Odds Ratio, ED or hospital encounter within 30 days: multivariable logistic regression, complete cases
[7] = tested on: SARS-CoV-2; conditions: cited from earlier work
[8] = tested on: COVID-19; conditions: p<0.05; cited from earlier work
[9] = tested on: SARS-CoV-2; conditions: cited from earlier work; remark: listed apart in the source
[10] = one-compartment model; cited from earlier work
[11] = biological target: sigma-1 receptors (Rattus norvegicus, UniProt Q9R0C9); conditions: cited from earlier work
Chain of sigma-1 receptors (Q9R0C9 whole entry): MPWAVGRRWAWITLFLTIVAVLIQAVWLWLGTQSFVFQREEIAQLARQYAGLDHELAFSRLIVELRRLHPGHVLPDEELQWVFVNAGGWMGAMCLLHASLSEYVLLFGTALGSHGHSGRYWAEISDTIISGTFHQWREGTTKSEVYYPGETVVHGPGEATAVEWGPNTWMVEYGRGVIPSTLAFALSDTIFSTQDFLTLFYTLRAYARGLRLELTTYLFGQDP

[12] = vs no FIASMA medication, Table 33
[13] = paracetamol group matched to FIASMA respiratory system medication, Table 34

T1 sequence (Q99720 whole entry): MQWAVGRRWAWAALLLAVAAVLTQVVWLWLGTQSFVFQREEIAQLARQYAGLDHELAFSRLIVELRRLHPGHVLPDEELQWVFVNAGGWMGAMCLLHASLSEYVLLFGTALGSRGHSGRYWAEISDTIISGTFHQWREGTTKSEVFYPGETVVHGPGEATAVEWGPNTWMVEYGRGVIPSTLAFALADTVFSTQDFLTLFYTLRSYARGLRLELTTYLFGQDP

## COc1ccc2c(c1)[C@]13CCCC[C@@H]1[C@H](C2)N(C)CC3 [Dextromethorphan]
[1]
  Function on σ1 Site: Agonist
[2]
  SARS-CoV-2 viral replication: increase viral replication
[3]
  Ki: < 500 nM

## OCCOCCN1CCN(C(c2ccccc2)c2ccc(Cl)cc2)CC1 (stereo not drawn) [Hydroxyzine]
[4]; Table 33
  Number of events/Number of patients N/N: 11/31

## CN(C)C(=O)C(CCN1CCC(O)(c2ccc(Cl)cc2)CC1)(c1ccccc1)c1ccccc1 [Loperamide]
[4]; Table 33
  Number of events/Number of patients N/N: 2/9
  Number of events/Number of patients (%): (22.2) %
  Univariate Cox regression in 1:2 ratio matched analytic samples HR: 0.24
[4]; [12]
  Analysis weighted by inverse-probability-weighting weights HR: 0.15
  Crude Cox regression analysis HR: 0.39
  Multivariable Cox regression analysis HR: 0.25

## CC(=O)Nc1ccc(O)cc1 [Paracetamol]
[4]; [13]
  Number of events/Number of patients in the matched groups (%): (21.4) %
  Number of events/Number of patients in the matched groups N/N: 3/14
[4]; paracetamol group matched to other FIASMA cardiovascular system medications, Table 34
  Number of events/Number of patients in the matched groups (%): (48.5) %

## CN(C)CCC=C1c2ccccc2CCc2ccccc21 [amitriptyline]
[5]; freshly isolated nasal epithelial cells of volunteers treated with a low dose
  Infection with pp-VSV-SARS-CoV-2 spike: prevented infection
[6]
  ED or hospital encounter within 30 days, %: 23.6%
  Unadjusted Odds Ratio, ED or hospital encounter within 30 days: 2.90
  Adjusted Odds Ratio, ED or hospital encounter within 30 days: 1.09
[7]; human Caco-2 cells
  Infection with SARS-CoV-2: prevented infection

## CN(C)CCC[C@@]1(c2ccc(F)cc2)OCc2cc(C#N)ccc21 [escitalopram]
[5]; Vero cells
  Infection with pp-VSV-SARS-CoV-2 spike: prevent infection
[8]
  Risk of intubation or death because of COVID-19: lower risk of intubation or death
[6]
  ED or hospital encounter within 30 days, %: 16.2%
[9]
  Inhibiting SARS-CoV-2 replication at a concentration of: at a concentration of 0.8 μg/ml

## CNCCC(Oc1ccc(C(F)(F)F)cc1)c1ccccc1 (stereo not drawn) [fluoxetine]
[5]; Vero cells
  Infection with pp-VSV-SARS-CoV-2 spike: prevent infection
[1]
  Function on σ1 Site: Agonist
[8]
  Risk of intubation or death because of COVID-19: lower risk of intubation or death
[6]
  ED or hospital encounter within 30 days, %: 16.2%
[7]; Vero-E6 cell lines
  Entry and propagation of SARS-CoV-2: efficiently inhibit entry and propagation
[10]
  volume of distribution [V/F]: 690 L

## Fc1ccc([C@@H]2CCNC[C@H]2COc2ccc3c(c2)OCO3)cc1 [paroxetine]
[4]; Table 33
  Univariate Cox regression in 1:2 ratio matched analytic samples HR: 0.54
[4]; [12]
  Analysis weighted by inverse-probability-weighting weights HR: 0.57
  Crude Cox regression analysis HR: 0.69
[6]
  ED or hospital encounter within 30 days, %: 15.1%
  Unadjusted Odds Ratio, ED or hospital encounter within 30 days: 1.67
  Adjusted Odds Ratio, ED or hospital encounter within 30 days: 0.64
[11]
  Ki: 2040 nM

## CN[C@H]1CC[C@@H](c2ccc(Cl)c(Cl)c2)c2ccccc21 [sertraline]
[1]
  Function on σ1 Site: Agonist
[4]; Table 33
  Number of events/Number of patients N/N: 7/21
  Number of events/Number of patients (%): (33.3) %
[4]; [12]
  Analysis weighted by inverse-probability-weighting weights adjusted for unbalanced covariates HR: 0.82
  Crude Cox regression analysis HR: 0.58
  Multivariable Cox regression analysis HR: 0.67
[6]
  ED or hospital encounter within 30 days, %: 17.9%

Reference: US20240315989A1 (priority 2021, published 2024)
